Key:
[1] = tested on: NeuN, MAP2; experiment: NeuN and MAP2 co-immunostaining and western blot, hippocampus; type: in vivo, APP/PS1 mice
Method: (§1) APP/PS1 mice of ages 6 months were randomly divided into vehicle (APP/PS1, n = 10) and treatment groups (AP5, n = 10), which were intragastrically administered with AP5 (40 mg/kg) once daily for consecutive 5 months. AP5 was dissolved in distilled water containing 1% sodium carboxymethyl cellulose.
(§2) The fixed hemibrains were paraffin-embedded and sectioned in the coronal plane. The slices were deparaffinized with xylene and rehydrated by a series of gradient alcohols. Antigen retrieval through microwave boiling was performed with 10 mM sodium citrate solution at pH 6.0. The slices were cooled down to room temperature and then rinsed in PBS solution. Then the slices were incubated in 10% goat serum blocking solution for 1 h followed by primary antibodies overnight at 4°C. The next day, the slides were labeled with biotinylated or fluorescent secondary antibodies. Slices were washed three times with PBS before being mounted. Images were captured using a SpinSR10 scanner (Olympus, Tokyo, Japan).
Frozen hippocampus and cortex were homogenized in pre-cooling RIPA buffer (P0013B, Beyotime) supplemented with 1 mM phenylmethanesulfonyl fluoride (PMSF) and cocktail of protease and phosphatase inhibitors. […] The membranes were incubated with 5% fat-free milk blocking solution for 1 h at room temperature and then probed with primary antibodies overnight at 4°C. […] Densitometric analysis was performed using Quantity One software (Bio-Rad, Berkeley, CA, United States).
Briefly, for ACh assay, the reactions were started by adding 100 µL of the Amplex Red reagent, HRP, choline oxidase, AChE working solution to each microplate well containing the controls and samples. […] Assay plates were incubated at room temperature for 30 min and protected from light, followed by detecting fluorescence of resorufin (λex = 544 nm, λem = 590 nm) in a fluorescence microplate reader. […]
(1:100, BAF2655, R&D, Minneapolis, MN, USA). […] For the quantification of Aβ plaque-associated microglia and […]

[2] = tested on: GFAP positive astrocytes; experiment: GFAP immunohistochemistry, Sholl analysis of astrocytes, APP/PS1 mice; type: in vivo; details: AP5 40 mg/kg once daily 5 months
Method: as §1
as §2, with “Japan). […]” for “Japan).”
After deparaffinization and antigen retrieval, the sections were incubated with 0.3% hydrogen peroxide (H2O2) to inhibit endogenous peroxidase activity for 20 min and blocked by goat serum for 30 min at37°C. Slides were subsequently incubated overnight with specific primary antibodies: anti-Iba1(1:100, ab178847, Abcam, Cambridge, UK) or anti-GFAP (1:100, bs-0199R, Bioss) at4 °C. […]

[3] = tested on: spatial recognition memory; experiment: Y-maze; type: in vivo; details: after training for 3 h, relative to APP/PS1 mice
Method: as §1
To investigate whether AP5 treatment plays a key role in cognition improvement of APP/PS1 mice models, the five different behavioral tests were sequentially carried out in the following order: open field, novel object recognition task, spatial object-location task, Y-maze, and Morris water maze (MWM). AP5 was also administered daily during the test periods. […]
For the spatial object location task (an object moved to a new location), mice first explored the two objects placed in two corners of the open field for 5 min in training period. After 1 h or 24 h, the mice received a 5 min retention trial with a new spatial configuration with an object moved from one corner to the opposite corner of the open field.The discrimination index was calculated and defined as: (time spent exploring the displaced object-time spent exploring nondisplaced objects) / total exploration time for the two objects during the 5 min retention trial. […]
guided to platform and allowed to stay on it for 30 s. The time (escape latency) for each mouse to find the way and reach the target platform was analyzed. […]

[4] = hippocampal CA1 pyramidal layer

## CCN(C)C(=O)Oc1cccc(/C=C2\Cc3cc(OC)c(OC)cc3C2=O)c1 [AP5, (E)-3-((5,6-dimethoxy-1-oxo-1,3-dihydro-2H-inden-2-ylidene)-methyl)phenylethyl(methyl)carbamate]
[1]; [4]
  MAP2 signals: restored
  average number of NeuN+ cells: restored
[1]; western blot, hippocampus
  protein expression of NeuN and MAP2: markedly increased
[2]
  reactive phenotypes of astrocytes (ramification index, sum of intersects): attenuated
[3]
  preference index: marked elevation
